Earlier results in US7060435B1, “Genotyping cytochrome expression” (Janssen Pharmaceutica, priority 1998, dated 2006).

Target: CYP3A4 and CYP3A5 (Homo sapiens, UniProt P08684)
Details: samples containing only CYP3A4

Chain of CYP3A4 and CYP3A5 (P08684 2-503): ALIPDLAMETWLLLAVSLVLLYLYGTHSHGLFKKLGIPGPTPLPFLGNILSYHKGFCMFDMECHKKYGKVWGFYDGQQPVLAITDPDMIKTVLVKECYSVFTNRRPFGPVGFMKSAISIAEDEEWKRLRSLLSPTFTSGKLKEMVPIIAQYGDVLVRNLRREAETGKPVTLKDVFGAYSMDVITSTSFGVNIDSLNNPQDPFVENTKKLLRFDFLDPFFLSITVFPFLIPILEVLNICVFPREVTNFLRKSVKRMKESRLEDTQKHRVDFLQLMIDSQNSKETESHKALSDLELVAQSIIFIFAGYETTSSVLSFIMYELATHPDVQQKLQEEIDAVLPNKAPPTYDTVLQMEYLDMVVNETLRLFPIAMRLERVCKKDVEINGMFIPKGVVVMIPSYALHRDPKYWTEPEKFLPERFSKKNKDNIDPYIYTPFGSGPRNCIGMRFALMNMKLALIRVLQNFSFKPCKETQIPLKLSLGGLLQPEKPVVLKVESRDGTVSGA

For `Cc1ncc2n1-c1ccc(Cl)cc1C(c1ccccc1F)=NC2` [midazolam], the 1-OHM/4-OHM ratio is given as under 4.
